Results as given in BindingDB's records for doi:10.7270/Q2T15221 (Nmmlsc, 2010).

Target: Ras-related protein Rab-2A (Canis lupus familiaris, UniProt P61105)
Experiment: Rab2 wildtype GTP-binding inhibitors, dose response, biochemical, GST-Rab2 beads, Bodipy-FL-GTP, flow cytometry, multiplex (AID 1337)

Ras-related protein Rab-2A, sequence (P61105 whole entry): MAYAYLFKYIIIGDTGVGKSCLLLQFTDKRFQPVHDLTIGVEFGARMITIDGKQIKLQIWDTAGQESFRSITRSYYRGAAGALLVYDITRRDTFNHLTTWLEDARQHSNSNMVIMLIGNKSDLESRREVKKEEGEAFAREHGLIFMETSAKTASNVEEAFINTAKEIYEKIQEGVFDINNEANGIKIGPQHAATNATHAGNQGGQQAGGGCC

| Compound | EC50 [µM] |
| --- | --- |
| CC(C)C(NCc1c(Cl)cccc1Cl)C(=O)O (stereo not drawn) [2-[(2,6-dichlorobenzyl)amino]-3-methyl-butyric acid] | 5.37 |
| Cc1ccc(C2=NN(S(=O)(=O)c3ccccc3)C(c3ccccc3O)C2)cc1 (stereo not drawn) [2-[2-(benzenesulfonyl)-5-(4-methylphenyl)-3,4-dihydropyrazol-3-yl]phenol] | 1.69 |
| Cc1cc(C)c(C)c(C(=O)c2ccccc2C(=O)O)c1C [2-(2,3,5,6-tetramethylbenzoyl)benzoic acid] | 6.26 |
| OC(CNCCc1c[nH]c2ccccc12)Cn1c2ccc(Cl)cc2c2cc(Cl)ccc21 (stereo not drawn) [1-(3,6-dichloro-9-carbazolyl)-3-[2-(3H-indol-3-yl)ethylamino]-2-propanol] | 26.3 |
| O=C(O)c1ccccc1NCCc1ccc(Cl)cc1 [2-[2-(4-chlorophenyl)ethylamino]benzoic acid] | 0.741 |
| Cc1nn(Cc2ccccc2)c(Cl)c1C(=O)O [1-benzyl-5-chloro-3-methyl-pyrazole-4-carboxylic acid] | 4.88 |
| COC(=O)c1c(-n2c(O)c3c(c2O)[C@]2(C(=O)Nc4c(C)cc(C)cc42)N2CCC[C@@H]32)sc(C)c1C [2-[(3S,3'aR,8'aS,8'bS)-5,7-dimethyl-1',2,3'-trioxo-2'-spiro[1H-indole-3,4'-3a,6,7,8,8a,8b-hexahydropyrrolo[3,4-a]pyrrolizine]yl]-4,5-dimethyl-3-thiophenecarboxylic acid methyl ester] | 1.99 |
| O=C(O)c1ccccc1Sc1ncnc2sc3c(c12)CCC3 | 2.76 |

Further lines, results first:

| EC50 [µM] | Compound |
| --- | --- |
| 3.45 | Cc1ccccc1NC(=O)C1CCCN1S(=O)(=O)c1cccc2cccnc12 (stereo not drawn) [MLS000119085] |
| 0.704 | COc1ccc(C2CC(c3ccccc3)=NN2c2ccc(S(N)(=O)=O)cc2)cc1 (stereo not drawn) [4-[3-(4-methoxyphenyl)-5-phenyl-3,4-dihydropyrazol-2-yl]benzenesulfonamide] |
| 30.9 | COc1ccc(-c2cc(C#N)nc(N3CCNCC3)n2)cc1 [6-(4-Methoxy-phenyl)-2-piperazin-1-yl-pyrimidine-4-carbonitrile] |
| 35.9 | CCOc1ccc(/C=C2\SC(N3CCc4ccccc4C3)=NC2=O)cc1 [(5Z)-2-(3,4-dihydro-1H-isoquinolin-2-yl)-5-(4-ethoxybenzylidene)-2-thiazolin-4-one] |
| 0.851 | COCCn1c(=S)[nH]c2cc(C(=O)N3CCc4ccccc4C3)ccc2c1=O [SMR000310652] |
| 2.67 | CCS(=O)(=O)N1N=C(c2cccc(NS(C)(=O)=O)c2)CC1c1ccc(C)cc1 (stereo not drawn) [MLS000680398] |
| 3.64 | O=C(O)/C=C/c1cn(Cc2ccccc2)nc1-c1cccs1 [(E)-3-(1-benzyl-3-thiophen-2-ylpyrazol-4-yl)prop-2-enoic acid] |
| 0.738 | N=C(N)NS(=O)(=O)c1ccc(NC(=S)NC(=O)c2ccc3c(c2)OCO3)cc1 [MLS000621545] |
| 5.42 | CCCN1C(=O)/C(=C/C=C2\N(CC)c3ccccc3C2(C)C)SC1=S [(5Z)-5-[(2Z)-2-(1-ethyl-3,3-dimethyl-2-indolylidene)ethylidene]-3-propyl-2-sulfanylidene-4-thiazolidinone] |
| 4.02 | O=C1C([N+](=O)[O-])=Cc2oc3c(c2C1/C=N/Cc1ccccc1)CCCC3 (stereo not drawn) [(1Z)-3-nitro-1-[[(phenylmethyl)amino]methylidene]-6,7,8,9-tetrahydrodibenzofuran-2-one] |
